Assay results taken from paper PMC10101011, “A Retro-Aldol Reaction Prompted the Evolvability of a Phosphotransferase System for the Utilization of a Rare Sugar” (Microbiology Spectrum, 2023).

Key:
Format in all cases: biochemical
[1] = target: T1, FruK (EC_FruK) (Escherichia coli, UniProt P0AEW9); test: coupled NADH oxidation assay (FbaA, TPI, G3PDH); conditions: 2 mM ATP, 2 mM substrate, 10 mM MgCl2, pH 8.0, 25 °C
T1 construct: His-tagged, pET-28a(+), expressed in E. coli BL21(DE3)

[2] = target: T2, EC_KbaY (Escherichia coli, UniProt P0AB74); test: coupled NADH oxidation assay (TPI, G3PDH); conditions: 1 mM substrate, 10 mM MgCl2, pH 8.0, 25 °C
T2 construct: gene kbaY; catalytic subunit alone without KbaZ, His-tagged, pET-28a(+), 31 kDa
T2 sequence (P0AB74 whole entry): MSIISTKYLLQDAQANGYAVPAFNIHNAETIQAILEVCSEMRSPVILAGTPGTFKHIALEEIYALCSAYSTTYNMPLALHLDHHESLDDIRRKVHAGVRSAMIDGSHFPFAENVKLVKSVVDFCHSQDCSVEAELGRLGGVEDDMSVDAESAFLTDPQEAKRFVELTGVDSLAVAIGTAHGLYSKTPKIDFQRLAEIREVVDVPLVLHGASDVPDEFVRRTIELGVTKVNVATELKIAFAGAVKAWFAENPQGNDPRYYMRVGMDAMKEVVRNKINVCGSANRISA

[3] = target: T3, EC_GatY (Escherichia coli, UniProt P0C8J6); test: coupled NADH oxidation assay (TPI, G3PDH); conditions: 1 mM substrate, 10 mM MgCl2, pH 8.0, 25 °C
T3 construct: gene gatY; catalytic subunit alone without GatZ, His-tagged, pET-28a(+), 30 kDa
T3 sequence (P0C8J6 whole entry): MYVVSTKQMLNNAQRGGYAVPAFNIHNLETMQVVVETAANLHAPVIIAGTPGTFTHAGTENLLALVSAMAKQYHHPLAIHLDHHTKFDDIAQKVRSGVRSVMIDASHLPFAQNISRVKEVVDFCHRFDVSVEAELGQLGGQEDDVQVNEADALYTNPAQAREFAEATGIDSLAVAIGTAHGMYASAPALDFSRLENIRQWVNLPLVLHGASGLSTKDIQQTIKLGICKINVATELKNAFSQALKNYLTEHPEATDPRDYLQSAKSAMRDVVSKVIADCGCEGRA

[4] = target: T4, FruK (EC_FruK) (Escherichia coli, UniProt P0AEW9, A39S); test: coupled NADH oxidation assay (GatY, TPI, G3PDH); conditions: 2 mM ATP, 2 mM substrate, 10 mM MgCl2, pH 8.0, 25 °C
T4 construct: His-tagged, pET-28a(+), expressed in E. coli BL21(DE3)
T4 sequence (P0AEW9 whole entry A39S): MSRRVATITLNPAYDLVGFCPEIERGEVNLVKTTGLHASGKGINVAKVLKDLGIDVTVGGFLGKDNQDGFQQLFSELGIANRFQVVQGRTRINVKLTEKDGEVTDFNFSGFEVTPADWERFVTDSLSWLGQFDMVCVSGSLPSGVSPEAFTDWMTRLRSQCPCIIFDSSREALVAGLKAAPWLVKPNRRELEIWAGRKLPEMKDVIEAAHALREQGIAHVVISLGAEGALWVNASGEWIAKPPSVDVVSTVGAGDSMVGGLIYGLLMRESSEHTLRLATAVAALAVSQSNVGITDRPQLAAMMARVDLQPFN

T1 sequence (P0AEW9 whole entry): as the sequence (P0AEW9 whole entry A39S) above, with S39A counted along it

`O=P(O)(O)OCC1(O)O[C@H](CO)[C@@H](O)[C@@H]1O` (stereo partly drawn) [D-Fru-1P] was tested, and the “coupled NADH oxidation assay (FbaA, TPI, G3PDH)” value [1] was “for primary D-Fru-1P were much lower than that of FruK_WT”.
`O=P(O)(O)OC[C@H]1OC(O)(COP(=O)(O)O)[C@@H](O)[C@H]1O` (stereo partly drawn) [D-Tag-1,6-BP] was tested, and the “coupled NADH oxidation assay (TPI, G3PDH)” value [2] was “EC_GatY and EC_KbaY showed much lower D-Tag-1,6-BP cleavage activity than BL_GatY” and the “coupled NADH oxidation assay (TPI, G3PDH)” value [3] was “EC_GatY and EC_KbaY showed much lower D-Tag-1,6-BP cleavage activity than BL_GatY”.
In the case of `O=P(O)(O)OC[C@H]1OC(O)(CO)[C@@H](O)[C@H]1O` (stereo partly drawn) [D-Tag-6P], the “coupled NADH oxidation assay (GatY, TPI, G3PDH)” value [4] is reported as “FruK_A39S showed relatively higher activities for D-Tag-6P than FruK_WT”.
